Legend:
Experiment in all cases: relative viability (nuclei count vs DMSO), 5 days (fraction); higher = more cells survive
[1] = compound: C=CCn1c(=O)c2cnc(Nc3ccc(N4CCN(C)CC4)cc3)nc2n1-c1cccc(C(C)(C)O)n1 [Adavosertib] + O=C(CCCCCCC(=O)Nc1ccccc1)NO [Vorinostat] (partner 1 µM)
Summary of the method: (§1)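 A single step with final 0.05% Triton X-100, 1% formaldehyde and 1 ug/ml Hoechst fixed the cells and stained nuclei 5 days after treatment. Lung cancer cell lines in 1536-well plates had been treated by pin tool the day after seeding with one drug alone or a fixed anchor-drug dose plus five library-drug doses (not always all listed) in √10 steps, and nuclei were counted on 4× images. Relative viability is the ratio of nuclei in treated wells to nuclei in vehicle wells, taken as the median of duplicate plates.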

[2] = compound: C=CCn1c(=O)c2cnc(Nc3ccc(N4CCN(C)CC4)cc3)nc2n1-c1cccc(C(C)(C)O)n1 [Adavosertib] + COc1cc2c(Oc3ccc(NC(=O)C4(C(=O)Nc5ccc(F)cc5)CC4)cc3F)ccnc2cc1OCCCN1CCOCC1 [Foretinib] (partner 0.25 µM)
Summary of the method: as §1

[3] = compound: COc1nc(N)nc2c1ncn2[C@@H]1O[C@H](CO)[C@@H](O)[C@@H]1O [Nelarabine] + CC(=O)Nc1cccc(-n2c(=O)n(C3CC3)c(=O)c3c(Nc4ccc(I)cc4F)n(C)c(=O)c(C)c32)c1 [Trametinib] (partner 0.02 µM)
Summary of the method: as §1

[4] = compound: COc1nc(N)nc2c1ncn2[C@@H]1O[C@H](CO)[C@@H](O)[C@@H]1O [Nelarabine] + CC1(C)CCC(c2ccc(Cl)cc2)=C(CN2CCN(c3ccc(C(=O)NS(=O)(=O)c4ccc(N[C@H](CCN5CCOCC5)CSc5ccccc5)c(S(=O)(=O)C(F)(F)F)c4)cc3)CC2)C1 [Navitoclax] (partner 0.5 µM)
Summary of the method: as §1

LCLC-103H
relative viability ([1]; first compound 0.01 µM): 0.834
relative viability ([1]; first compound 0.03162 µM): 0.78
relative viability ([1]; first compound 0.1 µM): 0.755
relative viability ([1]; first compound 0.3162 µM): 0.739
relative viability ([2]; first compound 0.01 µM): 0.922
relative viability ([2]; first compound 0.03162 µM): 0.794
relative viability ([2]; first compound 0.1 µM): 0.871
relative viability ([2]; first compound 0.3162 µM): 0.517
relative viability ([3]; first compound 0.01 µM): 0.72
relative viability ([3]; first compound 0.03162 µM): 0.68
relative viability ([3]; first compound 0.1 µM): 0.751
relative viability ([3]; first compound 0.3162 µM): 0.758
relative viability ([3]; first compound 1 µM): 0.69

NCI-H2405
relative viability ([1]; first compound 0.03162 µM): 0.882
relative viability ([1]; first compound 0.1 µM): 0.965
relative viability ([1]; first compound 0.3162 µM): 0.895
relative viability ([2]; first compound 0.01 µM): 1.05
relative viability ([2]; first compound 0.03162 µM): 1.06
relative viability ([2]; first compound 0.1 µM): 1.1
relative viability ([2]; first compound 0.3162 µM): 1.13
relative viability ([4]; first compound 0.01 µM): 1
relative viability ([4]; first compound 0.03162 µM): 0.902
relative viability ([4]; first compound 0.1 µM): 0.687
relative viability ([4]; first compound 0.3162 µM): 0.744
relative viability ([4]; first compound 1 µM): 0.84
relative viability ([3]; first compound 0.01 µM): 0.642
relative viability ([3]; first compound 0.03162 µM): 0.612
relative viability ([3]; first compound 0.1 µM): 0.528
relative viability ([3]; first compound 0.3162 µM): 0.677
relative viability ([3]; first compound 1 µM): 0.643

NCI-H1666
relative viability ([1]; first compound 0.01 µM): 1.06
relative viability ([1]; first compound 0.03162 µM): 0.865
relative viability ([1]; first compound 0.1 µM): 0.935
relative viability ([1]; first compound 0.3162 µM): 1.01
relative viability ([2]; first compound 0.01 µM): 0.93
relative viability ([2]; first compound 0.03162 µM): 0.953
relative viability ([2]; first compound 0.1 µM): 0.961
relative viability ([2]; first compound 0.3162 µM): 0.887
relative viability ([4]; first compound 0.01 µM): 1.08
relative viability ([4]; first compound 0.03162 µM): 1.08
relative viability ([4]; first compound 0.1 µM): 0.807
relative viability ([4]; first compound 0.3162 µM): 1.07
relative viability ([4]; first compound 1 µM): 0.937
relative viability ([3]; first compound 0.01 µM): 0.82
relative viability ([3]; first compound 0.03162 µM): 1
relative viability ([3]; first compound 0.1 µM): 0.738
relative viability ([3]; first compound 0.3162 µM): 0.839
relative viability ([3]; first compound 1 µM): 0.859

Calu-6
relative viability ([2]; first compound 0.01 µM): 0.905
relative viability ([2]; first compound 0.03162 µM): 0.956
relative viability ([2]; first compound 0.1 µM): 0.91
relative viability ([2]; first compound 0.3162 µM): 0.311
relative viability ([4]; first compound 0.01 µM): 1.17
relative viability ([4]; first compound 0.1 µM): 0.892
relative viability ([4]; first compound 0.3162 µM): 0.851
relative viability ([4]; first compound 1 µM): 0.909

BEN
relative viability ([1]; first compound 0.01 µM): 0.628
relative viability ([1]; first compound 0.03162 µM): 0.553
relative viability ([1]; first compound 0.1 µM): 0.669
relative viability ([1]; first compound 0.3162 µM): 0.592
relative viability ([2]; first compound 0.01 µM): 0.523
relative viability ([2]; first compound 0.03162 µM): 0.682
relative viability ([2]; first compound 0.1 µM): 0.566
relative viability ([2]; first compound 0.3162 µM): 0.695
relative viability ([4]; first compound 0.01 µM): 0.0794
relative viability ([4]; first compound 0.03162 µM): 0.0676
relative viability ([4]; first compound 0.1 µM): 0.187
relative viability ([4]; first compound 0.3162 µM): 0.0641
relative viability ([4]; first compound 1 µM): 0.0472
relative viability ([3]; first compound 0.01 µM): 1.17
relative viability ([3]; first compound 0.03162 µM): 0.91
relative viability ([3]; first compound 0.1 µM): 1.01
relative viability ([3]; first compound 0.3162 µM): 1.05
relative viability ([3]; first compound 1 µM): 1.31

201T
relative viability ([1]; first compound 0.01 µM): 0.953
relative viability ([1]; first compound 0.03162 µM): 1.01
relative viability ([1]; first compound 0.1 µM): 0.95
relative viability ([1]; first compound 0.3162 µM): 1.05
relative viability ([2]; first compound 0.01 µM): 1.28
relative viability ([2]; first compound 0.03162 µM): 1.14
relative viability ([2]; first compound 0.3162 µM): 1.23
relative viability ([4]; first compound 0.01 µM): 1.15
relative viability ([4]; first compound 0.03162 µM): 1.18
relative viability ([4]; first compound 0.1 µM): 1.18
relative viability ([4]; first compound 0.3162 µM): 1.15
relative viability ([4]; first compound 1 µM): 1.16
relative viability ([3]; first compound 0.01 µM): 0.781
relative viability ([3]; first compound 0.03162 µM): 0.775
relative viability ([3]; first compound 0.1 µM): 0.737
relative viability ([3]; first compound 0.3162 µM): 0.712
relative viability ([3]; first compound 1 µM): 0.73

NCI-H322M
relative viability ([1]; first compound 0.01 µM): 0.782
relative viability ([1]; first compound 0.03162 µM): 0.842
relative viability ([1]; first compound 0.1 µM): 0.722
relative viability ([1]; first compound 0.3162 µM): 0.564
relative viability ([2]; first compound 0.01 µM): 0.886
relative viability ([2]; first compound 0.03162 µM): 0.978
relative viability ([2]; first compound 0.1 µM): 0.821
relative viability ([2]; first compound 0.3162 µM): 0.517
relative viability ([4]; first compound 0.01 µM): 1.39
relative viability ([4]; first compound 0.03162 µM): 1.35
relative viability ([4]; first compound 0.1 µM): 1.3
relative viability ([4]; first compound 0.3162 µM): 1.27
relative viability ([4]; first compound 1 µM): 1.17
relative viability ([3]; first compound 0.01 µM): 0.547
relative viability ([3]; first compound 0.03162 µM): 0.505
relative viability ([3]; first compound 0.1 µM): 0.383
relative viability ([3]; first compound 0.3162 µM): 0.402
relative viability ([3]; first compound 1 µM): 0.511

NCI-H1792
relative viability ([4]; first compound 0.01 µM): 0.518
relative viability ([4]; first compound 0.1 µM): 0.931
relative viability ([4]; first compound 0.3162 µM): 0.685
relative viability ([4]; first compound 1 µM): 0.396
relative viability ([3]; first compound 0.01 µM): 0.541
relative viability ([3]; first compound 0.03162 µM): 0.513
relative viability ([3]; first compound 0.1 µM): 0.418
relative viability ([3]; first compound 0.3162 µM): 0.373
relative viability ([3]; first compound 1 µM): 0.508

NCI-H358
relative viability ([1]; first compound 0.01 µM): 0.622
relative viability ([1]; first compound 0.03162 µM): 0.597
relative viability ([1]; first compound 0.1 µM): 0.637
relative viability ([1]; first compound 0.3162 µM): 0.219
relative viability ([2]; first compound 0.01 µM): 0.764
relative viability ([2]; first compound 0.03162 µM): 0.682
relative viability ([2]; first compound 0.1 µM): 0.592
relative viability ([2]; first compound 0.3162 µM): 0.285
relative viability ([3]; first compound 0.01 µM): 0.124
relative viability ([3]; first compound 0.03162 µM): 0.14
relative viability ([3]; first compound 0.1 µM): 0.109
relative viability ([3]; first compound 0.3162 µM): 0.149
relative viability ([3]; first compound 1 µM): 0.123

Reference: the supplement of paper PMC10307832
